The source of these data is article PMC10591057 (Cell Reports Medicine, 2023).

This experiment concerns CNV lesions. Briefly: NHP laser-induced CNV, fluorescein angiography lesion grading. It is filed as in vivo, Chlorocebus sabaeus. To be noted: single ITV 1 mg Aflibercept.

On to “aflibercept: current standard of care anti-VEGF, single ITV administration of 1 mg”, for which the “incidence of grade IV lesions, Myr-EBIN vs aflibercept groups” value is given as “no significant difference”.
